Results as given in patent US9637496B2, “Substituted 7-azabicycles and their use as orexin receptor modulators” (priority 2013, dated 2017).
Like-named read-outs stand apart in the source and are kept apart here.

Key:
human orexin 2 receptor = human orexin 2 receptor (Homo sapiens (Human), UniProt O43614); test: Human orexin 2 receptor radioligand binding ([3H]-EMPA competition, HEK293 membranes)
human orexin 1 receptor = human orexin 1 receptor (Homo sapiens (Human), UniProt O43613); test: Human orexin 1 receptor radioligand binding (competitive binding, CHO membranes)
Chain of human orexin 1 receptor (O43613 whole entry): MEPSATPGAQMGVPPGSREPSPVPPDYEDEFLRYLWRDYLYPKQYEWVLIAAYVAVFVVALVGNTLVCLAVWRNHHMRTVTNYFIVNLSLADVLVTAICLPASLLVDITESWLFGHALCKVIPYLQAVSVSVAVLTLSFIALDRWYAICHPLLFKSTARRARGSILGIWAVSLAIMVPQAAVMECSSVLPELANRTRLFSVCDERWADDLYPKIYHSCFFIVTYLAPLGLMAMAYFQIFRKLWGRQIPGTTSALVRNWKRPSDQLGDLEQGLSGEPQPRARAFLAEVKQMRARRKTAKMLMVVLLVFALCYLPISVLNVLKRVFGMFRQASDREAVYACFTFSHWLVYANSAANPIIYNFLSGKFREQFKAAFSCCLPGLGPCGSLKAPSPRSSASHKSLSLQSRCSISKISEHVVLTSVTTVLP

rat orexin 1 receptor = rat orexin 1 receptor (Rattus norvegicus (Rat), UniProt P56718); test: Rat orexin 1 receptor radioligand binding (competitive binding, HEK293 membranes)
Chain of rat orexin 1 receptor (P56718 whole entry): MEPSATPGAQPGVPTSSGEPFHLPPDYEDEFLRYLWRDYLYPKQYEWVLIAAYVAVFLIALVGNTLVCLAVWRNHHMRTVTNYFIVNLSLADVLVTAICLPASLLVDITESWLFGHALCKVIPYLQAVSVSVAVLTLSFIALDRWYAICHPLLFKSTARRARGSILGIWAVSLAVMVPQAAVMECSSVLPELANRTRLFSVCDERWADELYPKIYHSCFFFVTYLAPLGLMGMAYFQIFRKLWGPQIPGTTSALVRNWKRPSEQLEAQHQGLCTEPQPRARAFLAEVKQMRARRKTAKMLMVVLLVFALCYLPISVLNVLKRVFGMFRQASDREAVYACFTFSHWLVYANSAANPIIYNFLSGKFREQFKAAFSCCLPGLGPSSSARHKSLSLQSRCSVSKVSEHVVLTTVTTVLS

[1] = human orexin 2 receptor, Table 2, averages from between 2-20 runs, read-out: hOX2 Ki
[2] = human orexin 1 receptor, Table 2, averages from between 2-20 runs, read-out: hOX1 Ki
[3] = rat orexin 1 receptor, Table 2, averages from between 2-20 runs, read-out: rOX1 Ki
[4] = Table 2, further testing, averages from 2-20 runs, read-out: hOX2 Ki

Chain of human orexin 2 receptor (O43614 whole entry): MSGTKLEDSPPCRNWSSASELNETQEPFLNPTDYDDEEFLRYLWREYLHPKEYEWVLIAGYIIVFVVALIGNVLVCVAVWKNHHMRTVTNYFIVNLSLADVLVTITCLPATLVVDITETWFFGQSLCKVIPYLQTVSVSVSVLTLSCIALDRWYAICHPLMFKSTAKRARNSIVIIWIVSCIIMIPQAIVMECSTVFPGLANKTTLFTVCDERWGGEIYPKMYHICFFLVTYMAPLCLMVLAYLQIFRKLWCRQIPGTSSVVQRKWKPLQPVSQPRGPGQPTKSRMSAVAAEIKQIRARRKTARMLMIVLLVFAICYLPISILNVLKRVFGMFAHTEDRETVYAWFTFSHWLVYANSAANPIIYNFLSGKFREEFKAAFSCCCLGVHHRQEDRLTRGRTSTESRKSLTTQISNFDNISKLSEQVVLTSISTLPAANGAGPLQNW

| SMILES | Ki (human orexin 2 receptor; [1]) [nM] | Ki (human orexin 1 receptor; [2]) [nM] | Ki (rat orexin 1 receptor; [3]) [nM] | Ki (human orexin 1 receptor; read-out: hOX1 Ki) [nM] | Ki (rat orexin 1 receptor; read-out: rOX1 Ki) [nM] | other results |
| --- | --- | --- | --- | --- | --- | --- |
| Cc1cccc(C(=O)N2C3CCC2C(Nc2cnc(Br)cn2)C3)c1-c1ncco1 [Example 308, ((1S,2R,4R)-2-((5-bromopyrazin-2-yl)amino)-7-azabicyclo[2.2.]heptan-7-yl)(3-methyl-2-(oxazol-2-yl)phenyl)methanone] | 173 | 4 | 6 |  |  |  |
| O=C(c1cccc(F)c1-n1nccn1)N1[C@@H]2CC[C@H]1[C@H](Nc1cnc(Br)cn1)C2 [Example 311, ((1S,2R,4R)-2-((5-bromopyrazin-2-yl)amino)-7-azabicyclo[2.2.1]heptan-7-yl)(3-fluoro-2-(2H-1,2,3-triazol-2-yl)phenyl)methanone] | 1000 |  |  | 21 | 17 |  |
| Cc1cccc(C(=O)N2[C@@H]3CC[C@H]2[C@H](Nc2ccc(C#N)cn2)C3)c1-c1ncco1 [Example 394, 6-(((1S,2R,4R)-7-(3-methyl-2-(oxazol-2-yl)benzoyl)-7-azabicyclo[2.2.1]heptan-2-yl)amino)nicotinonitrile] | 2100 | 250 | 187 |  |  |  |
| O=C(c1cccc(F)c1-c1ncccn1)N1[C@@H]2CC[C@H]1[C@H](Nc1ncc(C(F)(F)F)cc1Cl)C2 [Example 384, ((1S,2R,4R)-2-((3-chloro-5-(trifluoromethyl)pyridin-2-yl)amino)-7-azabicyclo[2.2.1]heptan-7-yl)(3-fluoro-2-(pyrimidin-2-yl)phenyl)methanone] | 612 | 12 | 15 |  |  |  |
| Cc1ccc(-c2ncccn2)c(C(=O)N2[C@@H]3CC[C@H]2[C@H](Nc2cnc(C(F)(F)F)cn2)C3)n1 [Example 403, (6-methyl-3-(pyrimidin-2-yl)pyridin-2-yl)((1S,2R,4R)-2-((5-(trifluoromethyl)pyrazin-2-yl)amino)-7-azabicyclo[2.2.1]heptan-7-yl)methanone] | 431 |  |  | 67 | 88 |  |
| O=C(c1ccccc1-c1ncccn1)N1[C@@H]2CC[C@H]1[C@H](Nc1cnc(C(F)(F)F)cn1)C2 [Example 400, (2-(pyrimidin-2-yl)phenyl)((1S,2R,4R)-2-((5-(trifluoromethyl)pyrazin-2-yl)amino)-7-azabicyclo[2.2.1]heptan-7-yl)methanone] | 571 |  |  | 19 | 27 |  |
| O=C(c1ccccc1-n1nccn1)N1C2CCC1C(Oc1ccc(C(F)(F)F)cn1)C2 (racemic) [Example 421] | 4200 |  |  |  |  | Ki (human orexin 1 receptor): 154 nM; Ki (rat orexin 1 receptor): 205 nM |
| Cc1cccc(C(=O)N2[C@@H]3CC[C@H]2[C@H](Nc2ccc(C#N)cn2)C3)c1-n1nccn1 [Example 391, 6-(((1S,2R,4R)-7-(3-methyl-2-(2H-1,2,3-triazol-2-yl)benzoyl)-7-azabicyclo[2.2.1]heptan-2-yl)amino)nicotinonitrile] | 4400 | 315 | 220 |  |  |  |
| Cc1ccc(-n2nccn2)c(C(=O)N2[C@@H]3CC[C@H]2[C@H](Nc2ncc(C(F)(F)F)cc2F)C3)n1 [Example 451, ((1S,2R,4R)-2-((3-fluoro-5-(trifluoromethyl)pyridin-2-yl)amino)-7-azabicyclo[2.2.1]heptan-7-yl)(6-methyl-3-(2H-1,2,3-triazol-2-yl)pyridin-2-yl)methanone] |  |  |  | 84 | 82 | Ki (human orexin 2 receptor; [4]): 517 nM |
| Cc1cccc(C(=O)N2[C@@H]3CC[C@H]2[C@H](Nc2ccc(Br)cn2)C3)c1-c1ncco1 [Example 302, ((1S,2R,4R)-2-((5-bromopyridin-2-yl)amino)-7-azabicyclo[2.2.1]heptan-7-yl)(3-methyl-2-(oxazol-2-yl)phenyl)methanone] | 188 |  |  | 5 | 5 |  |
| O=C(c1ncccc1-c1ncccn1)N1[C@@H]2CC[C@H]1[C@H](Nc1ncc(C(F)(F)F)cc1Cl)C2 [Example 387, ((1S,2R,4R)-2-((3-chloro-5-(trifluoromethyl)pyridin-2-yl)amino)-7-azabicyclo[2.2.1]heptan-7-yl)(3-(pyrimidin-2-yl)pyridin-2-yl)methanone] | 1100 | 33 | 40 |  |  |  |
| O=C(c1cccc(F)c1-c1ncccn1)N1[C@@H]2CC[C@H]1[C@H](Nc1ccc(C(F)(F)F)cn1)C2 [Example 279, (3-fluoro-2-(pyrimidin-2-yl)phenyl)((1S,2R,4R)-2-((5-(trifluoromethyl)pyridin-2-yl)amino)-7-azabicyclo[2.2.1]heptan-7-yl)methanone] |  |  |  |  |  | Ki (human orexin 2 receptor): 990 nM; Ki (human orexin 1 receptor): 9 nM; Ki (rat orexin 1 receptor): 18 nM |
| O=C(c1cc(F)ccc1-c1ncccn1)N1[C@@H]2CC[C@H]1[C@H](Nc1ccc(C(F)(F)F)cn1)C2 [Example 371, (5-fluoro-2-(pyrimidin-2-yl)phenyl)((1S,2R,4R)-2-((5-(trifluoromethyl)pyridin-2-yl)amino)-7-azabicyclo[2.2.1]heptan-7-yl)methanone] | 615 | 27 | 42 |  |  |  |
| Cc1cccc(C(=O)N2C3CCC2C(Oc2cnc(C(F)(F)F)cn2)C3)c1-n1nccn1 (racemic) [Example 444] |  |  |  |  |  | Ki (human orexin 2 receptor): 4200 nM; Ki (human orexin 1 receptor): 237 nM; Ki (rat orexin 1 receptor): 165 nM |
| O=C(c1cccc(F)c1-c1ccccn1)N1[C@@H]2CC[C@H]1[C@H](Nc1cnc(C(F)(F)F)cn1)C2 [Example 408, (3-fluoro-2-(pyridin-2-yl)phenyl)((1S,2R,4R)-2-((5-(trifluoromethyl)pyrazin-2-yl)amino)-7-azabicyclo[2.2.1]heptan-7-yl)methanone] | 150 |  |  | 19 | 12 |  |
| O=C(c1ncccc1-c1ncccn1)N1[C@@H]2CC[C@H]1[C@H](Nc1ncc(C(F)(F)F)cc1F)C2 [Example 458, ((1S,2R,4R)-2-((3-fluoro-5-(trifluoromethyl)pyridin-2-yl)amino)-7-azabicyclo[2.2.1]heptan-7-yl)(3-(pyrimidin-2-yl)pyridin-2-yl)methanone] |  |  |  |  |  | Ki (human orexin 2 receptor; [4]): 932 nM; Ki (human orexin 1 receptor; Table 2, further testing, averages from 2-20 runs, read-out: hOX1 Ki): 45 nM; Ki (rat orexin 1 receptor; Table 2, further testing, averages from 2-20 runs, read-out: rOX1 Ki): 46 nM |
| O=C(c1cccc(F)c1-c1ncc(F)cn1)N1C2CCC1C(Oc1ccc(C(F)(F)F)cn1)C2 (racemic) [Example 434] |  |  |  |  |  | Ki (human orexin 2 receptor): > 10000 nM; Ki (human orexin 1 receptor): 172 nM; Ki (rat orexin 1 receptor): 134 nM |
| O=C(c1cccc(F)c1-n1nccn1)N1[C@@H]2CC[C@H]1[C@H](Nc1ncc(Br)cn1)C2 [Example 317, ((1S,2R,4R)-2-((5-bromopyrimidin-2-yl)amino)-7-azabicyclo[2.2.1]heptan-7-yl)(3-fluoro-2-(2H-1,2,3-triazol-2-yl)phenyl)methanone] | 1600 | 70 | 31 |  |  |  |
| O=C(c1cccc(F)c1-c1ncccn1)N1[C@@H]2CC[C@H]1[C@H](Nc1cnc(C(F)(F)F)cn1)C2 [Example 238, (3-fluoro-2-(pyrimidin-2-yl)phenyl)((1S,2R,4R)-2-((5-(trifluoromethyl)pyrazin-2-yl)amino)-7-azabicyclo[2.2.1]heptan-7-yl)methanone] |  |  |  |  |  | Ki (human orexin 2 receptor): 763 nM; Ki (human orexin 1 receptor): 15 nM; Ki (rat orexin 1 receptor): 15 nM |
| O=C(c1ncccc1-c1ncccn1)N1[C@@H]2CC[C@H]1[C@H](Nc1ccc(C(F)(F)F)cn1)C2 [Example 381, (3-(pyrimidin-2-yl)pyridin-2-yl)((1S,2R,4R)-2-((5-(trifluoromethyl)pyridin-2-yl)amino)-7-azabicyclo[2.2.1]heptan-7-yl)methanone] | 790 |  |  | 25 | 25 |  |
| CN(c1ccc(C(F)(F)F)cn1)[C@@H]1C[C@H]2CC[C@@H]1N2C(=O)c1cccc(F)c1-c1ncccn1 [Example 377, (3-fluoro-2-(pyrimidin-2-yl)phenyl)((1S,2R,4R)-2-(methyl(5-(trifluoromethyl)pyridin-2-yl)amino)-7-azabicyclo[2.2.1]heptan-7-yl)methanone] | 9000 | 141 | 224 |  |  |  |
| O=C(c1ccc(F)cc1-n1nccn1)N1[C@@H]2CC[C@H]1[C@H](Nc1ccc(C(F)(F)F)cn1)C2 [Example 368, (4-fluoro-2-(2H-1,2,3-triazol-2-yl)phenyl)((1S,2R,4R)-2-((5-(trifluoromethyl)pyridin-2-yl)amino)-7-azabicyclo[2.2.1]heptan-7-yl)methanone] | 2600 | 71 | 78 |  |  |  |
| O=C(c1cccc(Cl)c1-c1ncccn1)N1[C@@H]2CC[C@H]1[C@H](Nc1cnc(C(F)(F)F)cn1)C2 [Example 300, (3-chloro-2-(pyrimidin-2-yl)phenyl)((1S,2R,4R)-2-((5-(trifluoromethyl)pyrazin-2-yl)amino)-7-azabicyclo[2.2.1]heptan-7-yl)methanone] | 93 |  |  | 9 | 9 |  |
| O=C(c1cc(F)ccc1-n1nccn1)N1[C@@H]2CC[C@H]1[C@H](Nc1ccc(C(F)(F)F)cn1)C2 [Example 369, (5-fluoro-2-(2H-1,2,3-triazol-2-yl)phenyl)((1S,2R,4R)-2-((5-(trifluoromethyl)pyridin-2-yl)amino)-7-azabicyclo[2.2.1]heptan-7-yl)methanone] | 629 | 45 | 67 |  |  |  |
| O=C(c1cccc(F)c1-c1ncc(F)cn1)N1[C@@H]2CC[C@H]1[C@H](Nc1cnc(C(F)(F)F)cn1)C2 [Example 398, (3-fluoro-2-(5-fluoropyrimidin-2-yl)phenyl)((1S,2R,4R)-2-((5-(trifluoromethyl)pyrazin-2-yl)amino)-7-azabicyclo[2.2.1]heptan-7-yl)methanone] | 2100 | 81 | 61 |  |  |  |
| O=C(c1c(F)cccc1-n1nccn1)N1[C@@H]2CC[C@H]1[C@H](Nc1ccc(C(F)(F)F)cn1)C2 [Example 370, (2-fluoro-6-(2H-1,2,3-triazol-2-yl)phenyl)((1S,2R,4R)-2-((5-(trifluoromethyl)pyridin-2-yl)amino)-7-azabicyclo[2.2.1]heptan-7-yl)methanone] | 508 | 142 | 104 |  |  |  |
